Experimental data taken from publication PMC10178127, “Immunomodulatory Effects of the Pea Defensin Psd1 in the Caco-2/Immune Cells Co-Culture upon Candida albicans Infection” (International Journal of Molecular Sciences, 2023).

System: Caco-2/moDCs co-culture
Experiment: Multiplex xMAP cytokine production, Caco-2/dendritic cells co-culture
Format: cell-based, human
Conditions: 24 h; for EGF level / Eotaxin level / FGF-2 level / FLT-3L level / Fractalkine level / G-CSF level / GM-CSF level / GROa level / IFNa2 level / IFNg level / IL-1RA level / IL-1a level / IL-1b level / IL-2 level / IL-3 level / IL-4 level / IL-5 level / IL-6 level / IL-7 level / IL-8 level / IL-9 level / IL-10 level / IL-12 (p40) level / IL-12 (p70) level / IL-13 level / IL-15 level / IL-17A level / IL-17E/IL-25 level / IL-17F level / IL-18 level / IL-22 level / IL-27 level / IP-10 level / M-GSF level / MCP-1 level / MCP-3 level / MDC level / MIG level / MIP-1a level / MIP-1b level / PDGF-AA level / PDGF-AB/BB level / RANTES level / TGF-a level / TNFa level / TNFb level / VEGFa level / sCD40L level: 2 µM apical, basolateral medium
Excerpt: The co-culture model consisted of immune cells (moDCs or monocytes) lying on the bottom of the culture well, and a Caco-2 polarized monolayer, mimicking intestinal epithelium, on a permeable insert. Immune cells were located on the serosal side of the epithelial barrier. In some inserts Candida albicans was loaded to the apical side of the epithelium, mimicking intestinal lumen colonization with this pathogenic fungus. This co-culture model allows yeast cells to contact only with the apical side of epithelial cells, but not with immune cells. Culture medium, containing cytokines, chemokines, and growth factors, produced by both epithelial and immune cells, was taken from basolateral chambers and analyzed by multiplex xMAP technology after incubation during 24 h when C. albicans cells switched to hyphal form.
For growing cells, mimicking epithelial barriers in vitro, Caco-2 cells were seeded onto 24-well polycarbonate Millicell cell culture inserts (0.4 μm, 0.6 cm^2 surface area) (Millipore, Burlington, MA, USA), precoated with 0.2% bovine gelatin (Sigma-Aldrich), at a density of 2.5 × 10^5 cells/cm^2. The cells were grown for 21 days in a complete DMEM/F12 (1:1) medium with re-feeding every 2–3 days with a fresh complete medium. The integrity of the Caco-2 cell monolayer was checked by measuring the transepithelial electrical resistance (TEER) using a Millicell-ERS Voltohmmeter (Millipore). Only cell monolayers with TEER > 400 Ωcm^2 (after subtracting TEER in blank inserts without Caco-2 cells) were used in transport across epithelial monolayer and cytokine production experiments.
Monocytes and moDCs were seeded into the wells of 48- and 24-well plates in the complete RPMI-1640 medium supplemented with 10% human AB serum (HABS, Capricorn Scientific) without antibiotics 24 h prior to the experiment, and kept in a humidified CO2-incubator (5% CO2, 37 °C). After 24 h, the medium in the wells of the 48-well plate was replaced by fresh complete RPMI-1640 medium with 10% HABS, supplemented with 2 µM of Psd1 for the sample wells or fresh medium alone for the control wells. Medium in the wells of the 24-well plate was replaced by fresh complete RPMI-1640 medium with 10% human serum without antibiotics. Then, Millicell inserts with Caco-2 monolayers with TEER > 400 Ωcm^2 were placed into the wells of the 24-well plate, containing monocytes or moDCs. Wells with Millicell inserts with Caco-2 monolayers without immune cells were used as control wells. Medium in apical chambers of Millicell inserts was replaced by fresh complete RPMI-1640 with 10% human serum medium containing Psd1 at the final concentration of 2 µM or Candida albicans at the concentration of 5 × 10^4 cells/mL or yeast cells together with the pea defensin at the same concentration. Fresh complete RPMI-1640 medium only with 10% human serum and without antibiotics was used in control wells. Plates were kept in CO2-incubator (5% CO2, 37 °C) for another 24 h. Culture supernatants from the wells of the 48-well plate and basolateral chambers of the 24-well plate were collected and stored at −70 °C degrees less than one month prior to the analytes assessment. […]

Substance: Psd1: pea defensin from Pisum sativum (UNIPROT P81929), recombinant peptide overexpressed in Escherichia coli (KTCEHLADTYRGVCFTNASCDDHCKNKAHLISGTCHNWKCFCTQNC; UniProt P81929 1-46, looked up)
- production of TNFα, IL-6, IL-8/CXCL8, IL-12, IL-27, G-CSF, GM-CSF, and MIPs induced by C. albicans (Caco-2/dendritic cells co-culture with C. albicans, 2 μM): inhibited the production
- EGF level (Caco-2/moDCs+Candida+Psd1): 4.72 pg/mL
- Eotaxin level (Caco-2/moDCs+Candida+Psd1): <3.52↓ pg/ml
- FGF-2 level (Caco-2/moDCs+Candida+Psd1): 37.17 pg/mL
- FLT-3L level (Caco-2/moDCs+Candida+Psd1): 0.57 pg/mL
- Fractalkine level (Caco-2/moDCs+Candida+Psd1): <17.82↓ pg/ml
- G-CSF level (Caco-2/moDCs+Candida+Psd1): 3.15 pg/mL
- GM-CSF level (Caco-2/moDCs+Candida+Psd1): 1.96 pg/mL
- GROa level (Caco-2/moDCs+Candida+Psd1): 23.25 pg/mL
- IFNa2 level (Caco-2/moDCs+Candida+Psd1): 7.95 pg/mL
- IFNg level (Caco-2/moDCs+Candida+Psd1): <2.23↓ pg/ml
- IL-1RA level (Caco-2/moDCs+Candida+Psd1): 160.3 pg/mL
- IL-1a level (Caco-2/moDCs+Candida+Psd1): 3.72 pg/mL
- IL-1b level (Caco-2/moDCs+Candida+Psd1): <2.26↓ pg/ml
- IL-2 level (Caco-2/moDCs+Candida+Psd1): 1.49 pg/mL
- IL-3 level (Caco-2/moDCs+Candida+Psd1): <0.60↓ pg/ml
- IL-4 level (Caco-2/moDCs+Candida+Psd1): <1.14↓ pg/ml
- IL-5 level (Caco-2/moDCs+Candida+Psd1): 2.95 pg/mL
- IL-6 level (Caco-2/moDCs+Candida+Psd1): 1.46 pg/mL
- IL-7 level (Caco-2/moDCs+Candida+Psd1): <0.38↓ pg/ml
- IL-8 level (Caco-2/moDCs+Candida+Psd1): 107.27 pg/mL
- IL-9 level (Caco-2/moDCs+Candida+Psd1): 4.69 pg/mL
- IL-10 level (Caco-2/moDCs+Candida+Psd1): 17.03 pg/mL
- IL-12 (p40) level (Caco-2/moDCs+Candida+Psd1): 52.85 pg/mL
- IL-12 (p70) level (Caco-2/moDCs+Candida+Psd1): <1.68↓ pg/ml
- IL-13 level (Caco-2/moDCs+Candida+Psd1): 11.06 pg/mL
- IL-15 level (Caco-2/moDCs+Candida+Psd1): 8.46 pg/mL
- IL-17A level (Caco-2/moDCs+Candida+Psd1): <2.09↓ pg/ml
- IL-17E/IL-25 level (Caco-2/moDCs+Candida+Psd1): <18.85↓ pg/ml
- IL-17F level (Caco-2/moDCs+Candida+Psd1): <19.03↓ pg/ml
- IL-18 level (Caco-2/moDCs+Candida+Psd1): 4.94 pg/mL
- IL-22 level (Caco-2/moDCs+Candida+Psd1): <5.23↓ pg/ml
- IL-27 level (Caco-2/moDCs+Candida+Psd1): 49.72 pg/mL
- IP-10 level (Caco-2/moDCs+Candida+Psd1): 334.16 pg/mL
- M-GSF level (Caco-2/moDCs+Candida+Psd1): 123.66 pg/mL
- MCP-1 level (Caco-2/moDCs+Candida+Psd1): 307.65 pg/mL
- MCP-3 level (Caco-2/moDCs+Candida+Psd1): 19.67 pg/mL
- MDC level (Caco-2/moDCs+Candida+Psd1): 2630 pg/mL
- MIG level (Caco-2/moDCs+Candida+Psd1): 38259 pg/mL
- MIP-1a level (Caco-2/moDCs+Candida+Psd1): 16.22 pg/mL
- MIP-1b level (Caco-2/moDCs+Candida+Psd1): 78.16 pg/mL
- PDGF-AA level (Caco-2/moDCs+Candida+Psd1): 256.1 pg/mL
- PDGF-AB/BB level (Caco-2/moDCs+Candida+Psd1): 97.16 pg/mL
- RANTES level (Caco-2/moDCs+Candida+Psd1): <0.62↓ pg/ml
- TGF-a level (Caco-2/moDCs+Candida+Psd1): 35.55 pg/mL
- TNFa level (Caco-2/moDCs+Candida+Psd1): 18.93 pg/mL
- TNFb level (Caco-2/moDCs+Candida+Psd1): 0.97 pg/mL
- VEGFa level (Caco-2/moDCs+Candida+Psd1): 75.3 pg/mL
- sCD40L level (Caco-2/moDCs+Candida+Psd1): 84.71 pg/mL
- EGF level (Caco-2/moDCs+Psd1): 4.72 pg/mL
- Eotaxin level (Caco-2/moDCs+Psd1): <3.52↓ pg/ml
- FGF-2 level (Caco-2/moDCs+Psd1): 45.43 pg/mL
- FLT-3L level (Caco-2/moDCs+Psd1): 0.57 pg/mL
- Fractalkine level (Caco-2/moDCs+Psd1): <17.82↓ pg/ml
- G-CSF level (Caco-2/moDCs+Psd1): 9.1 pg/mL
- GM-CSF level (Caco-2/moDCs+Psd1): 3.93 pg/mL
- GROa level (Caco-2/moDCs+Psd1): 21.95 pg/mL
- IFNa2 level (Caco-2/moDCs+Psd1): 5.69 pg/mL
- IFNg level (Caco-2/moDCs+Psd1): <2.23↓ pg/ml
- IL-1RA level (Caco-2/moDCs+Psd1): 141.59 pg/mL
- IL-1a level (Caco-2/moDCs+Psd1): 4.37 pg/mL
- IL-1b level (Caco-2/moDCs+Psd1): 9.3 pg/mL
- IL-2 level (Caco-2/moDCs+Psd1): 1.57 pg/mL
- IL-3 level (Caco-2/moDCs+Psd1): <0.60↓ pg/ml
- IL-4 level (Caco-2/moDCs+Psd1): <1.14↓ pg/ml
- IL-5 level (Caco-2/moDCs+Psd1): 3.35 pg/mL
- IL-6 level (Caco-2/moDCs+Psd1): 2.41 pg/mL
- IL-7 level (Caco-2/moDCs+Psd1): <0.38↓ pg/ml
- IL-8 level (Caco-2/moDCs+Psd1): 134.16 pg/mL
- IL-9 level (Caco-2/moDCs+Psd1): 3.44 pg/mL
- IL-10 level (Caco-2/moDCs+Psd1): 10.61 pg/mL
- IL-12 (p40) level (Caco-2/moDCs+Psd1): 52.85 pg/mL
- IL-12 (p70) level (Caco-2/moDCs+Psd1): <1.68↓ pg/ml
- IL-13 level (Caco-2/moDCs+Psd1): 16.44 pg/mL
- IL-15 level (Caco-2/moDCs+Psd1): 10.29 pg/mL
- IL-17A level (Caco-2/moDCs+Psd1): <2.09↓ pg/ml
- IL-17E/IL-25 level (Caco-2/moDCs+Psd1): <18.85↓ pg/ml
- IL-17F level (Caco-2/moDCs+Psd1): <19.03↓ pg/ml
- IL-18 level (Caco-2/moDCs+Psd1): 4.84 pg/mL
- IL-22 level (Caco-2/moDCs+Psd1): <5.23↓ pg/ml
- IL-27 level (Caco-2/moDCs+Psd1): 53.57 pg/mL
- IP-10 level (Caco-2/moDCs+Psd1): 330.74 pg/mL
- M-GSF level (Caco-2/moDCs+Psd1): 144.24 pg/mL
- MCP-1 level (Caco-2/moDCs+Psd1): 362.92 pg/mL
- MCP-3 level (Caco-2/moDCs+Psd1): 20.63 pg/mL
- MDC level (Caco-2/moDCs+Psd1): 2562 pg/mL
- MIG level (Caco-2/moDCs+Psd1): 32839 pg/mL
- MIP-1a level (Caco-2/moDCs+Psd1): 20.66 pg/mL
- MIP-1b level (Caco-2/moDCs+Psd1): 85.91 pg/mL
- PDGF-AA level (Caco-2/moDCs+Psd1): 233.14 pg/mL
- PDGF-AB/BB level (Caco-2/moDCs+Psd1): 92.84 pg/mL
- RANTES level (Caco-2/moDCs+Psd1): <0.62↓ pg/ml
- TGF-a level (Caco-2/moDCs+Psd1): 40.15 pg/mL
- TNFa level (Caco-2/moDCs+Psd1): 20.96 pg/mL
- TNFb level (Caco-2/moDCs+Psd1): 1.55 pg/mL
- VEGFa level (Caco-2/moDCs+Psd1): 82.2 pg/mL
- sCD40L level (Caco-2/moDCs+Psd1): 98.67 pg/mL
